Measured values reported in PubChem BioAssay AID248 (DTP/NCI, 2004).
Where “and” joins values, the source holds several entries; their conditions need not be identical. Equal entries are not always repeated. Inconclusive results and toxic doses are left out. No stated cut-off is given here; in the data, active means T/C of 150% or more; inactive means T/C below 125%.

System: L1210 leukemia ip in BDF1 mice, survival T/C
Assay: NCI In Vivo Anticancer Drug Screen. Data for tumor model L1210 Leukemia (intraperitoneal) in B6D2F1 (BDF1) mice
Conditions: endpoint: mean survival time, higher = longer survival
In short: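 Tumor was transplanted into mice, which were then dosed with test compound or vehicle alone. Survival was recorded for each group, and the treated figure was expressed relative to the control figure.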

[1] = dose: 100.0 mg/kg/injection, schedule: Q01DX009 (ip), vehicle: saline with Tween-80
[2] = dose: 100.0 mg/kg/injection, schedule: Q04DX003 (ip), vehicle: saline with Tween-80
[3] = dose: 200.0 mg/kg/injection, schedule: Q01DX009 (ip), vehicle: saline with Tween-80
[4] = dose: 200.0 mg/kg/injection, schedule: Q04DX003 (ip), vehicle: saline with Tween-80
[5] = dose: 400.0 mg/kg/injection, schedule: Q01DX009 (ip), vehicle: saline with Tween-80
[6] = dose: 400.0 mg/kg/injection, schedule: Q04DX003 (ip), vehicle: saline with Tween-80
[7] = dose: 100.0 mg/kg/injection, schedule: Q04DX002 (ip), vehicle: saline with Tween-80
[8] = dose: 200.0 mg/kg/injection, schedule: Q04DX002 (ip), vehicle: saline with Tween-80
[9] = dose: 400.0 mg/kg/injection, schedule: Q04DX002 (ip), vehicle: saline with Tween-80
[10] = dose: 100.0 mg/kg/injection, schedule: Q04DX002 (ip), vehicle: Klucel (hydroxypropylcellulose) (HPC)
[11] = dose: 200.0 mg/kg/injection, schedule: Q04DX002 (ip), vehicle: Klucel (hydroxypropylcellulose) (HPC)
[12] = dose: 400.0 mg/kg/injection, schedule: Q04DX002 (ip), vehicle: Klucel (hydroxypropylcellulose) (HPC)
[13] = dose: 100.0 mg/kg/injection, schedule: Q01DX001 (ip), vehicle: saline
[14] = dose: 200.0 mg/kg/injection, schedule: Q01DX001 (ip), vehicle: saline
[15] = dose: 400.0 mg/kg/injection, schedule: Q01DX001 (ip), vehicle: saline
[16] = dose: 50.0 mg/kg/injection, schedule: Q01DX001 (ip), vehicle: saline
[17] = dose: 100.0 mg/kg/injection, schedule: Q01DX001 (ip), vehicle: carboxymethylcellulose (CMC)
[18] = dose: 200.0 mg/kg/injection, schedule: Q01DX001 (ip), vehicle: carboxymethylcellulose (CMC)
[19] = dose: 400.0 mg/kg/injection, schedule: Q01DX001 (ip), vehicle: carboxymethylcellulose (CMC)
[20] = dose: 100.0 mg/kg/injection, schedule: Q04DX003 (ip), vehicle: Klucel (hydroxypropylcellulose) (HPC)
[21] = dose: 200.0 mg/kg/injection, schedule: Q04DX003 (ip), vehicle: Klucel (hydroxypropylcellulose) (HPC)
[22] = dose: 100.0 mg/kg/injection, schedule: Q01DX009 (ip), vehicle: Klucel (hydroxypropylcellulose) (HPC)
[23] = dose: 200.0 mg/kg/injection, schedule: Q01DX009 (ip), vehicle: Klucel (hydroxypropylcellulose) (HPC)

Measured: T/C

Cc1ccc(S(=O)(=O)OCC2COC(C(Cl)(Cl)Cl)O2)cc1 (stereo not drawn)
inactive: [1] 94 % of control | [2] 106 % of control | [3] 92 % of control | [4] 113 % of control | [5] 94 % of control | [6] 110 % of control

O=C1NC(=O)C2=C1SCCS2
inactive: [7] 91 % of control | [8] 109 % of control | [9] 109 % of control

O=[N+]([O-])C1(Br)c2ccccc2-c2nc3ccccc3cc21 (stereo not drawn)
inactive: dose: 100.0 mg/kg/injection, schedule: Q01DX001 (ip), vehicle: Klucel (hydroxypropylcellulose) (HPC) 94 % of control | dose: 200.0 mg/kg/injection, schedule: Q01DX001 (ip), vehicle: Klucel (hydroxypropylcellulose) (HPC) 97 % of control | dose: 400.0 mg/kg/injection, schedule: Q01DX001 (ip), vehicle: Klucel (hydroxypropylcellulose) (HPC) 94 % of control

CCCCCCCCCCCCCCCCCCNC(=O)Nc1ccc(SC)cc1
inactive: [10] 101 % of control | [11] 96 % of control | [12] 101 % of control

N#CCCn1c(=O)n(CCC#N)c(=O)n(CCC#N)c1=O
inactive: [10] 104 % of control | [11] 97 % of control | [12] 93 % of control

CC(C)(C)S(=O)(=O)CCCl
inactive: dose: 75.0 mg/kg/injection, schedule: Q01DX009 (ip), vehicle: Klucel (hydroxypropylcellulose) (HPC) 93 % of control | dose: 100.0 mg/kg/injection, schedule: Q01DX005 (ip), vehicle: Klucel (hydroxypropylcellulose) (HPC) 96 % of control | [10] 88 % of control | dose: 150.0 mg/kg/injection, schedule: Q01DX009 (ip), vehicle: Klucel (hydroxypropylcellulose) (HPC) 93 % of control | dose: 200.0 mg/kg/injection, schedule: Q01DX005 (ip), vehicle: Klucel (hydroxypropylcellulose) (HPC) 100 % of control | [11] 100 % of control | dose: 300.0 mg/kg/injection, schedule: Q01DX009 (ip), vehicle: Klucel (hydroxypropylcellulose) (HPC) 96 % of control | dose: 400.0 mg/kg/injection, schedule: Q01DX005 (ip), vehicle: Klucel (hydroxypropylcellulose) (HPC) 100 % of control | [12] 100 % of control

O=C(O)c1c(CN2CCOCC2)c(O)c(O)c(O)c1CN1CCOCC1
inactive: [13] 103 % of control | [14] 107 % of control | [15] 103 % of control

NC(=S)NN=C1CCC1
inactive: [16] 98 % of control | [13] 93 % of control and 91 % of control

O=S(=O)(ON1C=CC=CC1)ON1C=CC=CC1
inactive: dose: 25.0 mg/kg/injection, schedule: Q04DX002 (ip), vehicle: saline with Tween-80 106 % of control | dose: 50.0 mg/kg/injection, schedule: Q04DX002 (ip), vehicle: saline with Tween-80 95 % of control | [7] 106 % of control

NC(=S)c1ncc(N)s1
inactive: [7] 92 % of control | [8] 100 % of control | [9] 120 % of control

CCOC(=O)CN(c1ccccc1C(=O)OC)S(=O)(=O)c1ccc(C)cc1
inactive: [17] 112 % of control | [18] 114 % of control | [19] 107 % of control

CCCCCC(C1=NC(C)(C)CC(C)O1)c1ccccc1 (stereo not drawn)
inactive: dose: 100.0 mg/kg/injection, schedule: Q01DX009 (ip), vehicle: saline 103 % of control | dose: 100.0 mg/kg/injection, schedule: Q04DX003 (ip), vehicle: saline sonified 103 % of control | dose: 200.0 mg/kg/injection, schedule: Q01DX009 (ip), vehicle: saline 113 % of control | dose: 200.0 mg/kg/injection, schedule: Q04DX003 (ip), vehicle: saline sonified 117 % of control | dose: 400.0 mg/kg/injection, schedule: Q04DX003 (ip), vehicle: saline sonified 105 % of control

OC(Cc1cccc(/C=N/N2CCOCC2)n1)(C(F)(F)F)C(F)(F)F
inactive: [1] 91 % of control | [3] 98 % of control | [5] 89 % of control

Cc1nccn1-c1ccc(Cl)cc1N=Cc1ccc(N(CCCl)CCCl)cc1Cl
inactive: [10] 95 % of control | [11] 95 % of control | [12] 106 % of control

COP(=O)(OC)c1nc(P(=O)(OC)OC)nc(P(=O)(OC)OC)n1
inactive: [16] 98 % of control | [13] 93 % of control | [14] 93 % of control | [15] 93 % of control

CC(=O)Nc1ccc(S(=O)(=O)NC(=O)NCCC(C)C)cc1
inactive: [2] 94 % of control | [4] 102 % of control | [6] 102 % of control

COc1ccc(C(=O)NCCc2ccccc2)cc1
inactive: [20] 96 % of control | [21] 105 % of control | dose: 400.0 mg/kg/injection, schedule: Q04DX003 (ip), vehicle: Klucel (hydroxypropylcellulose) (HPC) 104 % of control

CCSc1n[nH]c(=O)nc1NN
inactive: dose: 10.0 mg/kg/injection, schedule: Q01DX001 (ip), vehicle: acetone 102 % of control | dose: 20.0 mg/kg/injection, schedule: Q01DX001 (ip), vehicle: acetone 96 % of control | dose: 40.0 mg/kg/injection, schedule: Q01DX001 (ip), vehicle: acetone 96 % of control

c1ccc(-c2cc3c(nn2)[nH]c2ccccc23)cc1
inactive: [10] 105 % of control | [11] 97 % of control | [12] 87 % of control

CC1(C)C=C(C(Br)c2ccc(Cl)cc2)C(=O)c2ccccc21 (stereo not drawn)
inactive: dose: 50.0 mg/kg/injection, schedule: Q01DX009 (ip), vehicle: Klucel (hydroxypropylcellulose) (HPC) 110 % of control | [22] 105 % of control | [20] 95 % of control | [23] 100 % of control | [21] 92 % of control

O=C(Nc1ccccc1O)c1ccc(Cl)c(Cl)c1
inactive: [22] 100 % of control | [23] 107 % of control | dose: 400.0 mg/kg/injection, schedule: Q01DX009 (ip), vehicle: Klucel (hydroxypropylcellulose) (HPC) 102 % of control

CC(C)(CO)NC(=O)CC1CCCCC1
inactive: [1] 96 % of control | [3] 97 % of control | [5] 97 % of control

CCOC(C(=O)N(C)CCN(C)CCc1ccccc1)(c1ccccc1)c1ccccc1
inactive: [13] 105 % of control | [14] 94 % of control

COC(=O)C1(C)COP(=O)(O)OC1 (stereo not drawn) (tested in a mixture with another compound)
inactive: [13] 91 % of control and 107 % of control and 100 % of control | [14] 94 % of control and 96 % of control and 97 % of control | [15] 89 % of control and 105 % of control and 107 % of control

O=C1c2ccccc2-c2cc(Br)c([N+](=O)[O-])c(Br)c21
inactive: [17] 96 % of control | [18] 101 % of control | [19] 102 % of control

NC(N)=N/N=C/c1cccnc1
inactive: dose: 15.0 mg/kg/injection, schedule: Q01DX Z (oral), vehicle: saline 97 % of control | dose: 30.0 mg/kg/injection, schedule: Q01DX Z (oral), vehicle: saline 97 % of control | dose: 60.0 mg/kg/injection, schedule: Q01DX Z (oral), vehicle: saline 97 % of control and 100 % of control | dose: 120.0 mg/kg/injection, schedule: Q01DX Z (oral), vehicle: saline 96 % of control and 107 % of control | dose: 240.0 mg/kg/injection, schedule: Q01DX Z (oral), vehicle: saline 94 % of control | dose: 480.0 mg/kg/injection, schedule: Q01DX Z (oral), vehicle: saline 89 % of control
